{"source": "patent US20250144067A1", "about": "“PERSONALIZED STARVATION THERAPY FOR CANCER” (Faeth Therapeutics, Inc., priority 2021, published 2025)", "key": {"[1]": {"tested_on": "NCI-H292 lung cancer cells", "experiment": "FDA drug screening, complete media vs cholesterol-free media without statin (TABLE 1)", "assay_type": "cell-based, human"}, "[2]": {"tested_on": "NCI-H292 lung cancer cells", "experiment": "FDA drug screening, complete media vs cholesterol-free media with simvastatin (TABLE 2)", "assay_type": "cell-based, human"}, "[3]": {"settings": "Complete minus Cholesterol-free, greater than 0 enhanced anti-cancer activity, about 0 neutral, below 0 antagonists"}, "[4]": {"settings": "NCI-H292 cells in cholesterol-free media without statin"}, "[5]": {"settings": "NCI-H292 cells in complete media"}, "[6]": {"settings": "NCI-H292 cells, FDA library drug in cholesterol-free media with simvastatin 0.04 μM"}, "[7]": {"settings": "NCI-H292 cells, FDA library drug in complete media"}, "[8]": {"settings": "complete media vs cholesterol-free media + simvastatin (0.04 μM), >0 enhanced anti-cancer activity, about 0 neutral, <0 antagonist"}, "[9]": {"settings": "Complete minus Cholesterol-free, >0 enhanced anti-cancer activity, about 0 neutral, <0 antagonist"}, "[10]": {"settings": "NCI-H292 cells, cholesterol-free media without statin"}, "[11]": {"settings": "NCI-H292 cells, cholesterol-free media with simvastatin 0.04 μM, cell growth value in FDA drug screen"}, "[12]": {"settings": "NCI-H292 cells, complete media, cell growth value in FDA drug screen"}, "[13]": {"settings": "complete media minus cholesterol-free media + simvastatin, >0 enhanced anti-cancer activity, about 0 neutral, <0 antagonist"}, "[14]": {"settings": "NCI-H292 cells, cholesterol-free media without statin, FDA drug library screen"}, "[15]": {"settings": "NCI-H292 cells, complete media, FDA drug library screen"}, "[16]": {"settings": "complete vs cholesterol-free media, >0 enhanced anti-cancer activity, about 0 neutral, <0 antagonist"}, "[17]": {"settings": "NCI-H292 cells, FDA drug library screen, cholesterol-free media with simvastatin 0.04 μM"}, "[18]": {"settings": "NCI-H292 cells, FDA drug library screen, complete media"}, "[19]": {"settings": "NCI-H292 cells, cholesterol-free media with simvastatin 0.04 μM, FDA drug library screen (TABLE 2)"}, "[20]": {"settings": "NCI-H292 cells, complete media, FDA drug library screen (TABLE 2)"}, "[21]": {"settings": "complete media minus cholesterol-free media + simvastatin (0.04 μM), >0 enhanced anti-cancer activity, about 0 neutral, <0 antagonist"}, "[22]": {"settings": "complete vs cholesterol-free media, greater than 0 enhanced anti-cancer activity, about 0 neutral, below 0 antagonists"}}, "note": "Where a name gives a salt, the structure may show the parent alone. Read-outs that look alike come from different tables or passages of the source."}
{"smiles": "c1cnc2cc3c(cc2n1)[C@@H]1CNC[C@H]3C1", "note": "[Varenicline]", "values": [{"measurement": "Difference", "setting": "[1]; [3]", "result": "−0.54"}, {"measurement": "Cholesterol-free", "setting": "[1]; [4]", "result": 1.353}, {"measurement": "Complete", "setting": "[1]; [5]", "result": 0.8146}, {"measurement": "Cholesterol-free media + simvastatin (0.04 μM)", "setting": "[2]; [6]", "result": 1.359}, {"measurement": "Complete Media", "setting": "[2]; [7]", "result": 1.033}, {"measurement": "Difference", "setting": "[2]; [8]", "result": "−0.33"}]}
{"smiles": "CC(=O)O[C@H]1C[C@@H]2CC[C@@H]3[C@H](CC[C@@]4(C)[C@H]3C[C@H]([N+]3(C)CCCCC3)[C@@H]4OC(C)=O)[C@@]2(C)C[C@@H]1N1CCCCC1.[Br-]", "note": "[Vecuronium (bromide)]", "values": [{"measurement": "Cholesterol-free", "setting": "[1]", "result": 1.045}, {"measurement": "Complete", "setting": "[1]", "result": 0.9438}, {"measurement": "Difference", "setting": "[1]", "result": "−0.10"}, {"measurement": "Cholesterol-free media + simvastatin (0.04 μM)", "setting": "[2]", "result": 0.9802}, {"measurement": "Complete Media", "setting": "[2]", "result": 0.9534}, {"measurement": "Difference", "setting": "[2]", "result": "−0.03"}]}
{"smiles": "COC[C@H]1C[C@@H](c2nc(-c3ccc4c(c3)COc3cc5c(ccc6nc([C@@H]7CC[C@H](C)N7C(=O)[C@@H](NC(=O)OC)C(C)C)[nH]c65)cc3-4)c[nH]2)N(C(=O)[C@H](NC(=O)OC)c2ccccc2)C1", "note": "[Velpatasvir]", "values": [{"measurement": "Difference", "setting": "[1]; [9]", "result": "−0.30"}, {"measurement": "Cholesterol-free", "setting": "[1]; [10]", "result": 1.014}, {"measurement": "Complete", "setting": "[1]; NCI-H292 cells, complete media", "result": 0.7173}, {"measurement": "Cholesterol-free media + simvastatin (0.04 μM)", "setting": "[2]; [11]", "result": 0.7455}, {"measurement": "Complete Media", "setting": "[2]; [12]", "result": 0.7768}, {"measurement": "Difference", "setting": "[2]; [13]", "result": 0.03}]}
{"smiles": "CCCS(=O)(=O)Nc1ccc(F)c(C(=O)c2c[nH]c3ncc(-c4ccc(Cl)cc4)cc23)c1F", "note": "[Vemurafenib]", "values": [{"measurement": "Cholesterol-free", "setting": "[1]; [14]", "result": 0.6442}, {"measurement": "Complete", "setting": "[1]; [15]", "result": 1.257}, {"measurement": "Difference", "setting": "[1]; [16]", "result": 0.61}, {"measurement": "Cholesterol-free media + simvastatin (0.04 μM)", "setting": "[2]; [17]", "result": 0.8006}, {"measurement": "Complete Media", "setting": "[2]; [18]", "result": 0.9559}, {"measurement": "Difference", "setting": "[2]; [13]", "result": 0.16}]}
{"smiles": "CC1(C)CCC(CN2CCN(c3ccc(C(=O)NS(=O)(=O)c4ccc(NCC5CCOCC5)c([N+](=O)[O-])c4)c(Oc4cnc5[nH]ccc5c4)c3)CC2)=C(c2ccc(Cl)cc2)C1", "note": "[Venetoclax]", "values": [{"measurement": "Difference", "setting": "[1]; [3]", "result": "−0.58"}, {"measurement": "Cholesterol-free", "setting": "[1]; [4]", "result": 1.517}, {"measurement": "Complete", "setting": "[1]; [5]", "result": 0.9332}, {"measurement": "Cholesterol-free media + simvastatin (0.04 μM)", "setting": "[2]; [17]", "result": 1.767}, {"measurement": "Complete Media", "setting": "[2]; [18]", "result": 1.658}, {"measurement": "Difference", "setting": "[2]; [8]", "result": "−0.11"}]}
{"smiles": "COc1ccc(C(CN(C)C)C2(O)CCCCC2)cc1", "note": "(stereo not drawn) [Venlafaxine (hydrochloride)]", "values": [{"measurement": "Cholesterol-free", "setting": "[1]; [10]", "result": 1.049}, {"measurement": "Complete", "setting": "[1]; NCI-H292 cells, complete media", "result": 0.7326}, {"measurement": "Difference", "setting": "[1]; complete vs cholesterol-free media, […]", "result": "−0.32"}, {"measurement": "Cholesterol-free media + simvastatin (0.04 μM)", "setting": "[2]; [6]", "result": 1.551}, {"measurement": "Complete Media", "setting": "[2]; [7]", "result": 1.023}, {"measurement": "Difference", "setting": "[2]; complete media vs cholesterol-free media + simvastatin (0.04 μM), […]", "result": "−0.53"}]}
{"smiles": "COc1ccc(CCN(C)CCCC(C#N)(c2ccc(OC)c(OC)c2)C(C)C)cc1OC", "note": "(stereo not drawn) [Verapamil (hydrochloride)]", "values": [{"measurement": "Cholesterol-free", "setting": "[1]", "result": 0.9873}, {"measurement": "Complete", "setting": "[1]", "result": 0.8558}, {"measurement": "Difference", "setting": "[1]", "result": "−0.13"}, {"measurement": "Cholesterol-free media + simvastatin (0.04 μM)", "setting": "[2]", "result": 1.071}, {"measurement": "Complete Media", "setting": "[2]", "result": 1.013}, {"measurement": "Difference", "setting": "[2]", "result": "−0.06"}]}
{"smiles": "COc1ccc(CCO[C@@H]2CCCC[C@H]2N2CC[C@@H](O)C2)cc1OC", "note": "[Vernakalant (Hydrochloride)]", "values": [{"measurement": "Difference", "setting": "[1]; [9]", "result": "−0.26"}, {"measurement": "Cholesterol-free", "setting": "[1]; [10]", "result": 1.252}, {"measurement": "Complete", "setting": "[1]; NCI-H292 cells, complete media", "result": 0.9876}, {"measurement": "Cholesterol-free media + simvastatin (0.04 μM)", "setting": "[2]; [11]", "result": 1.555}, {"measurement": "Complete Media", "setting": "[2]; [12]", "result": 1.614}, {"measurement": "Difference", "setting": "[2]; [13]", "result": 0.06}]}
{"smiles": "COc1ccc(C(=O)N2CCN(c3ccc4c(c3)CCC(=O)N4)CC2)cc1OC", "note": "[Vesnarinone]", "values": [{"measurement": "Cholesterol-free", "setting": "[1]; [14]", "result": 0.9756}, {"measurement": "Complete", "setting": "[1]; [15]", "result": 1.197}, {"measurement": "Difference", "setting": "[1]; [16]", "result": 0.22}, {"measurement": "Cholesterol-free media + simvastatin (0.04 μM)", "setting": "[2]; [19]", "result": 0.9506}, {"measurement": "Complete Media", "setting": "[2]; [20]", "result": 0.9031}, {"measurement": "Difference", "setting": "[2]; [21]", "result": "−0.05"}]}
{"smiles": "Nc1ncnc2c1ncn2[C@@H]1O[C@H](CO)[C@@H](O)[C@@H]1O", "note": "[Vidarabine]", "values": [{"measurement": "Cholesterol-free", "setting": "[1]; [10]", "result": 1.542}, {"measurement": "Complete", "setting": "[1]; NCI-H292 cells, complete media", "result": 1.194}, {"measurement": "Difference", "setting": "[1]; [22]", "result": "−0.35"}, {"measurement": "Cholesterol-free media + simvastatin (0.04 μM)", "setting": "[2]; NCI-H292 cells, drug in cholesterol-free media with simvastatin 0.04 μM", "result": 0.9857}, {"measurement": "Complete Media", "setting": "[2]; NCI-H292 cells, drug in complete media", "result": 0.8059}, {"measurement": "Difference", "setting": "[2]; [8]", "result": "−0.18"}]}
{"smiles": "C=CC(N)CCC(=O)O", "note": "(stereo not drawn) [Vigabatrin (hydrochloride)]", "values": [{"measurement": "Difference", "setting": "[1]; [3]", "result": "−0.74"}, {"measurement": "Cholesterol-free", "setting": "[1]; [4]", "result": 1.769}, {"measurement": "Complete", "setting": "[1]; [5]", "result": 1.024}, {"measurement": "Cholesterol-free media + simvastatin (0.04 μM)", "setting": "[2]; [19]", "result": 1.122}, {"measurement": "Complete Media", "setting": "[2]; [20]", "result": 1.063}, {"measurement": "Difference", "setting": "[2]; [21]", "result": "−0.06"}]}
{"smiles": "C=CC(N)CCC(=O)O", "note": "(stereo not drawn) [Vigabatrin]", "values": [{"measurement": "Cholesterol-free", "setting": "[1]; [14]", "result": 0.7255}, {"measurement": "Complete", "setting": "[1]; [15]", "result": 1.221}, {"measurement": "Difference", "setting": "[1]; [16]", "result": 0.50}, {"measurement": "Cholesterol-free media + simvastatin (0.04 μM)", "setting": "[2]; [19]", "result": 0.8099}, {"measurement": "Complete Media", "setting": "[2]; [20]", "result": 0.7743}, {"measurement": "Difference", "setting": "[2]; [21]", "result": "−0.04"}]}
{"smiles": "O=C(O)C(c1ccccc1)(c1ccccc1)c1ccccc1.OCc1cc([C@@H](O)CNCCCCCCOCCOCc2c(Cl)cccc2Cl)ccc1O", "note": "[Vilanterol (trifenatate)]", "values": [{"measurement": "Cholesterol-free", "setting": "[1]; [10]", "result": 1.453}, {"measurement": "Complete", "setting": "[1]; NCI-H292 cells, complete media", "result": 1.047}, {"measurement": "Difference", "setting": "[1]; [22]", "result": "−0.41"}, {"measurement": "Cholesterol-free media + simvastatin (0.04 μM)", "setting": "[2]; [19]", "result": 0.9213}, {"measurement": "Complete Media", "setting": "[2]; [20]", "result": 0.9369}, {"measurement": "Difference", "setting": "[2]; [21]", "result": 0.02}]}
